In patent publication EP4640206A1, “NISIN FOR INHIBITING BIOFILMS” (SkyLab AG, priority 2024, dated 2025):

Tested on: multispecies biofilms
Assay: Follow-up observation of pH of washes of a laboratory model of multispecies biofilms in 10% sucrose
Type: cell-based
Conditions: for Value of pH decrease within 30 min. of measurement (%): compared to the initial value
Procedure: Example No. 3. Follow-up observation of pH of washes of a laboratory model of multispecies biofilms.
To perform this test, it was necessary to obtain multispecies biofilms of bacteria. A 72-well, round-bottom, polystyrene plate for titration was used as an adhesive surface for growing multispecies biofilms. The inner surface was processed with a round abrasive drill bit, with visual inspection of the procedure. Then the plate was washed and immersed into isopropyl alcohol for 10 min. followed by 3-fold washing in distilled water.
Saliva was collected in the fasting state by spitting into a sterile centrifuge tube. Saliva was used to prepare inoculum with the following composition: 96.5 ml of saliva, 1 ml of 10% sucrose, 3.5 ml of S.mutans suspension 0.8 units of McF.
To obtain biofilms, the prepared inoculum was poured 1 ml into all wells of the prepared plate, after which the wells were covered with a similar plate and sealed with parafilm film. The plate was placed on a shaker pad with variable surface slope placed in a CO2 incubator and incubated overnight (16 hours). The contents of the wells were then extracted with an aspirator by dipping the plastic tip into the center of the well until completely drained. 1 ml of soy-casein broth was added to all wells of the plate with an automatic pipette. The plate was placed into the incubator. The described cycle was repeated for four days.
Biofilm formation was monitored visually by gram staining. After four days, the contents of the wells were extracted with an aspirator. All 6 wells of the first row were filled with 1 ml of deionized water and left for 5 min. Water was extracted with an aspirator; 1 ml of the test drug was added into the wells, in 1 min. the drug was removed, the wells were filled for 1 min. with deionized water, then it was removed. 250 µl of 10% sucrose solution was added to the wells. The formed biofilms were scraped off with a disposable loop (10µl); the suspension of two neighboring wells was combined and transferred to three Eppendorfs. Sample combination allowed increasing the volume of the analyzed suspension sample up to 0.5 ml, which in turn allowed carrying out pH measurements in free volume with the necessary reserve at high density of biofilm culture of microorganisms and optimal time for the sample measurement procedure (20 sec.). After combination of the samples, pH was immediately measured. The measurement time points were 0, 1, 2, 3, 4, 5, 6, 6, 7, 8, 9, 10, 15,20,30 min. The results of pH changes in multispecies dental biofilms in the presence of sucrose under the influence of active ingredients are shown in Figure 3 and Tables 3-4. Table 3. Results of pH measurements of mechanically disrupted multispecies biofilms in 10% sucrose solution, follow-up (10% sucrose solution pH-6.98).

NC(N)=O [Urea, reference compound]
pH of mechanically disrupted multispecies biofilms (Urea 0.5%, 0 min): 6.4±0.006
pH of mechanically disrupted multispecies biofilms (Urea 0.5%, 1 min): 6.4±0.006
pH change (in brackets), multispecies biofilms (Urea 0.5%, 1 min vs previous time point): 0
pH of mechanically disrupted multispecies biofilms (Urea 0.5%, 2 min): 6.4±0.006
pH change (in brackets), multispecies biofilms (Urea 0.5%, 2 min vs previous time point): 0
pH of mechanically disrupted multispecies biofilms (Urea 0.5%, 3 min): 6.4±0.006
pH change (in brackets), multispecies biofilms (Urea 0.5%, 3 min vs previous time point): 0
pH of mechanically disrupted multispecies biofilms (Urea 0.5%, 4 min): 6.41±0.006
pH change (in brackets), multispecies biofilms (Urea 0.5%, 4 min vs previous time point): +0.01
pH of mechanically disrupted multispecies biofilms (Urea 0.5%, 5 min): 6.42±0.006
pH change (in brackets), multispecies biofilms (Urea 0.5%, 5 min vs previous time point): +0.01
pH of mechanically disrupted multispecies biofilms (Urea 0.5%, 6 min): 6.44±0.006
pH change (in brackets), multispecies biofilms (Urea 0.5%, 6 min vs previous time point): +0.02
pH of mechanically disrupted multispecies biofilms (Urea 0.5%, 7 min): 6.45±0.006
pH change (in brackets), multispecies biofilms (Urea 0.5%, 7 min vs previous time point): +0.01
pH of mechanically disrupted multispecies biofilms (Urea 0.5%, 8 min): 6.43±0.02
pH change (in brackets), multispecies biofilms (Urea 0.5%, 8 min vs previous time point): -0.02
pH of mechanically disrupted multispecies biofilms (Urea 0.5%, 9 min): 6.43±0.0
pH change (in brackets), multispecies biofilms (Urea 0.5%, 9 min vs previous time point): 0
pH of mechanically disrupted multispecies biofilms (Urea 0.5%, 10 min): 6.42±0.0
pH change (in brackets), multispecies biofilms (Urea 0.5%, 10 min vs previous time point): -0.01
pH of mechanically disrupted multispecies biofilms (Urea 0.5%, 15 min): 6.25±0.01
pH change (in brackets), multispecies biofilms (Urea 0.5%, 15 min vs previous time point): -0.17
pH of mechanically disrupted multispecies biofilms (Urea 0.5%, 20 min): 6.18±0.02
pH change (in brackets), multispecies biofilms (Urea 0.5%, 20 min vs previous time point): -0.07
pH of mechanically disrupted multispecies biofilms (Urea 0.5%, 30 min): 5.97±0.02
pH change (in brackets), multispecies biofilms (Urea 0.5%, 30 min vs previous time point): -0.21
Value of pH decrease within 30 min. of measurement (%) (Urea 0.5%): -6.7%

Nisin
pH of mechanically disrupted multispecies biofilms (Nisin 0.004%, 0 min): 6.32±0.006
pH of mechanically disrupted multispecies biofilms (Nisin 0.004%, 1 min): 6.3±0.006
pH change (in brackets), multispecies biofilms (Nisin 0.004%, 1 min vs previous time point): -0.02
pH of mechanically disrupted multispecies biofilms (Nisin 0.004%, 2 min): 6.28±0.0
pH change (in brackets), multispecies biofilms (Nisin 0.004%, 2 min vs previous time point): -0.02
pH of mechanically disrupted multispecies biofilms (Nisin 0.004%, 3 min): 6.26±0.006
pH change (in brackets), multispecies biofilms (Nisin 0.004%, 3 min vs previous time point): -0.02
pH of mechanically disrupted multispecies biofilms (Nisin 0.004%, 4 min): 6.24±0.01
pH change (in brackets), multispecies biofilms (Nisin 0.004%, 4 min vs previous time point): -0.02
pH of mechanically disrupted multispecies biofilms (Nisin 0.004%, 5 min): 6.22±0.006
pH change (in brackets), multispecies biofilms (Nisin 0.004%, 5 min vs previous time point): -0.02
pH of mechanically disrupted multispecies biofilms (Nisin 0.004%, 6 min): 6.2±0.0
pH change (in brackets), multispecies biofilms (Nisin 0.004%, 6 min vs previous time point): -0.02
pH of mechanically disrupted multispecies biofilms (Nisin 0.004%, 7 min): 6.2±0.006
pH change (in brackets), multispecies biofilms (Nisin 0.004%, 7 min vs previous time point): 0
pH of mechanically disrupted multispecies biofilms (Nisin 0.004%, 8 min): 6.19±0.0
pH change (in brackets), multispecies biofilms (Nisin 0.004%, 8 min vs previous time point): -0.01
pH of mechanically disrupted multispecies biofilms (Nisin 0.004%, 9 min): 6.19±0.006
pH change (in brackets), multispecies biofilms (Nisin 0.004%, 9 min vs previous time point): 0
pH of mechanically disrupted multispecies biofilms (Nisin 0.004%, 10 min): 6.18±0.0
pH change (in brackets), multispecies biofilms (Nisin 0.004%, 10 min vs previous time point): -0.01
pH of mechanically disrupted multispecies biofilms (Nisin 0.004%, 15 min): 6.12±0.006
pH change (in brackets), multispecies biofilms (Nisin 0.004%, 15 min vs previous time point): -0.06
pH of mechanically disrupted multispecies biofilms (Nisin 0.004%, 20 min): 6.11±0.0
pH change (in brackets), multispecies biofilms (Nisin 0.004%, 20 min vs previous time point): -0.01
pH of mechanically disrupted multispecies biofilms (Nisin 0.004%, 30 min): 6.07±0.006
pH change (in brackets), multispecies biofilms (Nisin 0.004%, 30 min vs previous time point): -0.04
Value of pH decrease within 30 min. of measurement (%) (Nisin 0.004%): -3.95%
Value of pH decrease within 30 min. of measurement (%) (Nisin 0.008%): -8.7%
pH of mechanically disrupted multispecies biofilms (Nisin 0,008%, 0 min): 6.54±0.006
pH of mechanically disrupted multispecies biofilms (Nisin 0,008%, 1 min): 6.45±0.006
pH change (in brackets), multispecies biofilms (Nisin 0,008%, 1 min vs previous time point): -0.09
pH of mechanically disrupted multispecies biofilms (Nisin 0,008%, 2 min): 6.4±0.006
pH change (in brackets), multispecies biofilms (Nisin 0,008%, 2 min vs previous time point): -0.05
pH of mechanically disrupted multispecies biofilms (Nisin 0,008%, 3 min): 6.35±0.006
pH change (in brackets), multispecies biofilms (Nisin 0,008%, 3 min vs previous time point): -0.05
pH of mechanically disrupted multispecies biofilms (Nisin 0,008%, 4 min): 6.3±0.006
pH change (in brackets), multispecies biofilms (Nisin 0,008%, 4 min vs previous time point): -0.05
pH of mechanically disrupted multispecies biofilms (Nisin 0,008%, 5 min): 6.22±0.01
pH change (in brackets), multispecies biofilms (Nisin 0,008%, 5 min vs previous time point): -0.08
pH of mechanically disrupted multispecies biofilms (Nisin 0,008%, 6 min): 6.16±0.006
pH change (in brackets), multispecies biofilms (Nisin 0,008%, 6 min vs previous time point): -0.06
pH of mechanically disrupted multispecies biofilms (Nisin 0,008%, 7 min): 6.1±0.01
pH change (in brackets), multispecies biofilms (Nisin 0,008%, 7 min vs previous time point): -0.06
pH of mechanically disrupted multispecies biofilms (Nisin 0,008%, 8 min): 6.0±0.02
pH change (in brackets), multispecies biofilms (Nisin 0,008%, 8 min vs previous time point): -0.1
pH of mechanically disrupted multispecies biofilms (Nisin 0,008%, 9 min): 5.99±0.006
pH change (in brackets), multispecies biofilms (Nisin 0,008%, 9 min vs previous time point): -0.01
pH of mechanically disrupted multispecies biofilms (Nisin 0,008%, 10 min): 5.98±0.0
pH change (in brackets), multispecies biofilms (Nisin 0,008%, 10 min vs previous time point): -0.01
pH of mechanically disrupted multispecies biofilms (Nisin 0,008%, 15 min): 5.97±0.006
pH change (in brackets), multispecies biofilms (Nisin 0,008%, 15 min vs previous time point): -0.01
pH of mechanically disrupted multispecies biofilms (Nisin 0,008%, 20 min): 5.96±0.006
pH change (in brackets), multispecies biofilms (Nisin 0,008%, 20 min vs previous time point): -0.01
pH of mechanically disrupted multispecies biofilms (Nisin 0,008%, 30 min): 5.97±0.006
pH change (in brackets), multispecies biofilms (Nisin 0,008%, 30 min vs previous time point): +0.01
effect on the value of acidity in the multispecies biofilm affected by sucrose (nisin 0.004 and 0.008%): stabilizing effect
